Where “and” joins values, the source holds several entries; their conditions need not be identical. Identical values can stand only once. Square brackets hold non-standard residues; d marks the D form. Peptide text beside a SMILES is read from it. * marks the point of attachment. Sta = CC(C)C[C@H](N)[C@@H](O)CC(=O)O; pNA = O=[N+]([O-])c1ccc(N*)cc1; Isovaleryl = CC(C)CC(=O)*; MeOSuc = COC(=O)CCC(=O)*
How the values were obtained:
[1] = test system: non specific proteolytic activity of the nasal wash specimen; test: Background noise in nasal wash specimen pool (HRV assay, PEP1); assay type: biochemical; conditions: 4 μM PEP1; 5 min
Protocol: (§1) All inhibitors were dissolved at 100×, aliquoted, stored and used according to the manufacturers' instructions. No freeze thaw cycles were imposed on the inhibitors. Prior to starting the assay by addition of substrate, 10 μl of the cocktail or individual inhibitor was incubated for 5 min with 90 μl of the sample/buffer+ HRV protease.
(§2) To test the effect of the inhibitors on protease activity (Buffer+3C) and on background noise present in a nasal wash specimen pool, reaction rates were compared with or without the inhibitors in question (Table 12). Reactions were performed at 4 μM PEP1 and 50 nM recombinant HRV 3C protease for 5 min under starting buffer environment. A nasal wash specimen pool of four HRV negative specimens by RT-PCR was used due to insufficient volume from an individual specimen and to reproduce equal conditions throughout the experiments.
(§3) Results with and without inhibitory cocktail and with cocktail+recombinant HRV 3C protease are shown for both the specimen pool (FIG. 21A) and human WBC at ˜1×10^6 cell/ml (FIG. 21B). […] Spiking of recombinant HRV 3C protease to reactions with the inhibitory cocktail induced specific HRV protease activities at normal rates. Reactions were performed with 4 μM PEP1 and 50 nM recombinant HRV 3C protease where indicated (by +3C). The data are representative of two independent repeats.

[2] = target: T1, recombinant HRV 3C protease (Human rhinovirus 14, UniProt P03303); test: HRV 3C protease activity with inhibitors (Buffer+3C, PEP1); assay type: biochemical; conditions: 4 μM PEP1; 50 nM recombinant HRV 3C protease
T1 construct: Reactions were performed at 4 μM PEP1 and 50 nM recombinant HRV 3C protease
T1 sequence (P03303 1538-1719): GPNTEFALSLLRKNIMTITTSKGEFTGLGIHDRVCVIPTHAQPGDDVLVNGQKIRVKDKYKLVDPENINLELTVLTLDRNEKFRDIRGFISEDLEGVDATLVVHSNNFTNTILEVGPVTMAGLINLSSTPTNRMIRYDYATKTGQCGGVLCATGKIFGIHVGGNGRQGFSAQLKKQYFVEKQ
Protocol: as §1, §2, §3

[3] = target: T2, a-Chymotrypsin Type IV (Bos taurus, UniProt P00766, DEL14-15/DEL147-148); test: Competition inhibition of chymotrypsin by two substrates; assay type: biochemical; conditions: Sub.-1 50 nM, Enzyme 100 pg/ml
T2 construct: purchased
Protocol: • Dilution and reaction Buffer: HEPES 100 mM pH=7.5. • Substrate 1 (Sub.-1) Camb-2.4 (a batch of Camb2 substrate): FRET substrate based on Alexa 532 fluorophore. • Substrate 2 (Sub.-2): Commercially available colorimetric base (420NM) a-Chymotrypsin substrate. Dissolve in 1:1 HEPES/DMSO to 20 mm. additional 1:10 dilution was done in HEPES buffer. • Enzyme—a-Chymotrypsin: Commercially available a-Chymotrypsin Type IV was diluted in HEPES buffer to a stock of 20 ug/ml. Fluorimeter: DMV, Polar-Star Galaxy. Parameters: • Ex. […]. • Temprature RT. • Total reading Time 10 min. Gain 90
• Solution-1: HEPES buffer. • Solution-2: Substrate-1 stock was diluted 1:10 in 1000 ul HEPES to give a 2× solution of 100 nM. • Solution-3, a-d: Substrate-2 stock was serially diluted 1:10 with HEPES and 10 ul of each dilution was added into 40 ul of HEPES. a-400 uM, b-40 uM, c-4 uM, d-400 nM (10× solutions) • Solution-4: Enzyme stock was diluted 1:20 into 300 ul of HEPES to give a 10× solution.
Using a multi-Channel pipette, the above Solutions were added into a non binding blacked bottom 96 wells plat, using columns 1-6 of rows A-C. 30 ul Solution-1 and 50 ul Solution-2 were added to each well. Into rows A-C, 10 ul of Solution-1 was added to columns 1 and 2, 10 ul Solution-3a was added to column 3, 10 ul Solution-3b was added to column 4, 10 ul Solution-3c was added to column 5 and 10 ul Solution-3d was added to column 6. Into rows A-C. 10 ul of Solution-1 was added to columns 1, 10 ul of Solution-4 was added to columns 2-6. Fluorimertic reading was then started.

[4] = target: T3, Recombinant protease from enterovirus strain Echo (Echovirus 30, UniProt Q9WN78); test: Enterovirus assay optimization with recombinant Echo protease (plates, tubes, buffer, Na2SO4, substrate concentration, diluent); assay type: biochemical; conditions: for enzymatic activity: 0.25 uM substrate
T3 construct: Phosphoramidon was tested using the Echovirus 3C recombinant
T3 sequence (Q9WN78 1550-1732): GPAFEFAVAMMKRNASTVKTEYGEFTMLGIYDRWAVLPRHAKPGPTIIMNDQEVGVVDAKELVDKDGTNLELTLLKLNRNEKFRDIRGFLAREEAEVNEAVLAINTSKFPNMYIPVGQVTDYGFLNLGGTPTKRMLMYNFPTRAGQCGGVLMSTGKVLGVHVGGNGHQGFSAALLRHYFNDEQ
Protocol: • Inhibitor Cocktail: Inhibitors cocktail I10 • Enzyme dilution buffer: −25 mM HEPES pH 7.5, 150 mM NaCl, 1 mM EDTA, 10% Glycerol, 0.5 mg/ml BSA, 1M Sucrose, 0.1% Sodium azid. • 2× reaction buffer, Buffer B: 50 mM HEPES, 10 mM EDTA, 10 mM EGTA, 1.2M Na2SO4, sodium azide 0.1%, pH 8.5 • Artificial CSF: NaCl 125 mM, KCl 2.5 mM, MgCl 1 mM, NaH2PO4 1.25 mM, CaCl2 2 mM, Glucose 2.5 mM, NaHCO3 25 mM, 0.1% Sodium azide, HEPES 25 mM, pH 7.45. • Enzyme: Recombinant protease from enterovirus strain “Echo” [dilution 1:18 • Substrate: Camb-2.3, 1 mM, Camb-2.4, 2 mM. (Different batches for the same Camb2 sequence) • HEPES Buffer: HEPES 25 mM • NB tubes: Sigma Cat #Z666505 • Amber tubes: USA scientific Inc. Cat. 1620-2707 • 96 well Plate: Dark bottom NB plate—Greiner Cat. 655900
• 1. Add artiCSF±HEPES buffer to plate • 2. Prepare 400 ul HEPES buffer±RB+substrate (camb2.3 and 2.4) in both amber and NB tubes. • 3. Add enzyme to wells • 4. Add HEPES buffer±RB+substrate to wells with multichannel pipette.
The reaction buffer is a part of the enterovirus test kit of the invention. The camb-2 substrate is dissolved in the reaction buffer. The reaction buffer contains different salts to allow the tested enzyme to work at the optimal conditions. The current reaction buffer composition is: HEPES pH 7.5, 300 mM NaCl, 10 mM EDTA, 10 mM EGTA, 10% Glycerol, 1.8M Na2SO4, 0.1% Sodium azide. The amount of salt in the reaction buffer is high and allows optimal enzymatic activity. However, under these conditions, substrate solubility is affected. Thus, the reaction buffer was improved to increase substrate solubility without reducing enzymatic activity of the tested 3C protease.
300 mM NaCl and 10% glycerol was removed from the reaction buffer and several reduced concentrations of Na2SO4 (starting at 0.9M) were tested in order to determine the minimal salt requirements of the assay (Tables 31-34). Experiments were repeated at least three times by two different scientists.
CSF sample was incubated with 50 nM Echo protease and 2× reaction buffer with 0.6M Na2SO4. Also included were 3 blanks and 9 positive control repetitions.
The effect of reduction in substrate (camb2) concentration and increase in measurement time was tested. The experiment was performed at a final substrate (camb2.5) concentrations of 1, 0.5, 0.25 and 0.125 μM and data analysis was made at different time intervals: 1.5-5, 5-12 and 5-22 min (FIGS. 27A-C).
Sodium sulfate generally has an ambivalent effect: it increase 3C protease activity and reduces substrate solubility. Once it was decided that the substrate concentration would be reduced to 0.25 uM and results analyzed at between 5-10 min, the Na2SO4 concentration was optimized. […] 0.6-0.4M Na2SO4 was tested under the new assay conditions.
• Data analysis was performed between 5-10 min. • The assay activity was measured in triplicates by three scientists. The results in Table 51 are the average of the three triplicates.
To examine the effect of substrate dilution in DMSO vs. DDW under the new assay conditions, substrate stock (1 mM in DMSO) was diluted 1:8 in DMSO or in DDW to yield the working stock. The working stocks were further diluted 1:250 in 2× RB for a concentration of 0.5 uM (0.25 uM final in the well).
The assay activity was measured in triplicates by three scientists. The results in Table 52 are the average of the three triplicates.

[5] = target: PSA (Homo sapiens, UniProt P07288); conditions: in the presence of 1.3M Na2SO4; cited from earlier work
Sequence of PSA (P07288 25-261): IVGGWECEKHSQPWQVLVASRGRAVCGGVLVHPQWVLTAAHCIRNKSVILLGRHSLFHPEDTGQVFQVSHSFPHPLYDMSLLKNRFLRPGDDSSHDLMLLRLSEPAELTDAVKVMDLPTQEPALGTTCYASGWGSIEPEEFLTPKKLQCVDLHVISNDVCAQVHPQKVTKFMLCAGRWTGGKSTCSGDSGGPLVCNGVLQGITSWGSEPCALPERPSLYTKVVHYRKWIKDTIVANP

Ac-DEVD-CHO
effect on the non specific proteolytic activity of the nasal wash specimen [1]: no effect

Heparin
inhibition of HRV 3C protease activity [2]: did not inhibit

M-Suc-Ala-Ala-Pro-Phe-p-Nitr (MeOSuc-AAPF-pNA; SMILES COC(=O)CCC(=O)N[C@@H](C)C(=O)N[C@@H](C)C(=O)N1CCC[C@H]1C(=O)N[C@@H](Cc1ccccc1)C(=O)Nc1ccc([N+](=O)[O-])cc1) [Sub.-2, Commercially available colorimetric a-Chymotrypsin substrate]
Inhibition % ([3]; Sub.-2 40 nM): 10%
Rate FU/min (Average) ([3]; Sub.-2 40 nM): 18000 FU/min
Inhibition % ([3]; Sub.-2 400 nM): 20%
Rate FU/min (Average) ([3]; Sub.-2 400 nM): 16000 FU/min
Inhibition % ([3]; Sub.-2 4 uM): 40%
Rate FU/min (Average) ([3]; Sub.-2 4 uM): 12000 FU/min
Inhibition % ([3]; Sub.-2 40 uM): 55%
Rate FU/min (Average) ([3]; Sub.-2 40 uM): 9000 FU/min

CC(C)[C@@H]1C(=O)N(S(C)(=O)=O)[C@@H]2CCN(C(=O)/C=C/CN3CCCCC3)[C@H]21.Cl [GW311616A]
inhibition of HRV 3C protease activity [2]: did not inhibit

O=S(=O)([O-])[O-].[Na+].[Na+] [Na2SO4]
Positive control reaction rate, 0.4M Na2SO4, Averages ± SE ([4]; 0.4M Na2SO4, average of all experiments, analysis 5-10 min): 444 ± 75 RFU/min
enzymatic activity ([4]; 0.4M sodium sulfate, analysis 5-10 min): 444
Positive control reaction rate, 0.5M Na2SO4, Averages ± SE ([4]; 0.5M Na2SO4, average of all experiments, analysis 5-10 min): 703 ± 56 RFU/min
enzymatic activity ([4]; 0.5M sodium sulfate, analysis 5-10 min): 700
Positive control reaction rate, 0.6M Na2SO4, Averages ± SE ([4]; 0.6M Na2SO4, average of all experiments, analysis 5-10 min): 825 ± 31 RFU/min
Positive control reaction rate, 0.6M Na2SO4 ([4]; 0.6M Na2SO4 final, recombinant Echo protease positive control, 0.25 uM camb2.5 substrate, data analysis 5-10 min, single experiments (EXP)): 679 RFU/min and 918 RFU/min and 921 RFU/min and 739 RFU/min and 770 RFU/min and 862 RFU/min and 890 RFU/min and 824 RFU/min
enzymatic activity ([4]; 0.6M sodium sulfate, analysis 5-10 min): 825
increase of PSA photolytic activity [5]: > 103 fold

CC(C)C[C@H](NC(=O)[C@@H](O)[C@H](N)Cc1ccccc1)C(=O)O [Bestatin]
inhibition of HRV 3C protease activity [2]: did not inhibit
effect on the non specific proteolytic activity of the nasal wash specimen [1]: no effect

CC(C)CC(=O)N[C@H](C(=O)N[C@H](C(=O)N[C@@H](CC(C)C)[C@@H](O)CC(=O)N[C@@H](C)C(=O)N[C@@H](CC(C)C)[C@@H](O)CC(=O)O)C(C)C)C(C)C [Pepstatin A] (Isovaleryl-VV[Sta]A[Sta]-OH)
inhibition of HRV 3C protease activity [2]: did not inhibit
effect on the non specific proteolytic activity of the nasal wash specimen [1]: no effect

CC(C)C[C@H](NC(=O)[C@H]1O[C@@H]1C(=O)O)C(=O)NCCCCN=C(N)N [E-64]
inhibition of HRV 3C protease activity [2]: no inhibition

Source: patent US20110306035A1, “Methods and Compositions for Detection of a Pathogen, Disease, Medical Condition, or Biomarker Thereof” (priority 2008, published 2011)
